Drawing on patent US6071917A, “N-benzenesulphonyl-L-proline derivatives as bradykinin B2 antagonists” (Fournier Industrie Et Sante, priority 1996, dated 2000), this text covers inhibition for 15 molecules.

Where a name gives a salt, the structure may show the parent alone.

For the test, the target named is T1, guinea-pig B2 receptor (Cavia porcellus, UniProt O70526).
T1 construct: Ileum segments are isolated from male guinea-pigs; tissue Iffa Credo, l'Arbresle, France (supplier of the animals); host or cells: ileum membranes of male Dunkin-Hartley guinea-pigs
T1 sequence (O70526 1-372): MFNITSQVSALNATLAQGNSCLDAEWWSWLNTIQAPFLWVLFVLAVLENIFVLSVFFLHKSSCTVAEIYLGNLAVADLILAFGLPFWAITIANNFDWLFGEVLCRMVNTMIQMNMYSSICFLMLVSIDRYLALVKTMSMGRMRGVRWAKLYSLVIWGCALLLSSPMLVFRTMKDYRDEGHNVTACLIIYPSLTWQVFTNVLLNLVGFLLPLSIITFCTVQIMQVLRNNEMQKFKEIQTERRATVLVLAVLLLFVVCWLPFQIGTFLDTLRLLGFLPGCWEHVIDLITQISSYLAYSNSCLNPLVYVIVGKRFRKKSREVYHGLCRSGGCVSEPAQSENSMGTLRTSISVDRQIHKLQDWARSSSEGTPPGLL
In words: [3H]-bradykinin binding to guinea-pig ileum membranes. Particulars: test compound at 10^-6 M; [3H]-bradykinin 120 pM; 50 μg ileum membrane protein; 90 min at 20° C.; read-out: Activity (%): percentage inhibition of the binding of [3H]-bradykinin. How it is done: The following pharmacological test is used: Ileum segments are isolated from male guinea-pigs [of the Dunkin-Hartley strain (Iffa Credo, l'Arbresle, France)] and ground in the following TES buffer: TES 25 mM, 1,10-phenanthroline 1 mM (pH 6.8), bacitracin 140 μg/ml, BSA 1 g/l. The membranes are then isolated by centrifugation (18,000 rpm; 20 min; 4° C.). The binding studies are carried out in this TES buffer using [^3 H]-bradykinin (120 pM) and 50 μg of membrane protein per test (final volume 500 μl) with an equilibrium time of 90 min at 20° C. The percentage inhibition of the binding of [^3 H]-bradykinin is then determined in the presence of one of the test compounds according to the invention at a concentration of 10^-6 M.
The results obtained from these tests (shown as "activity") are collated in Table I below with reference to the Examples given in the description.
As to `Cc1ccc2cccc(OCc3c(Cl)ccc(S(=O)(=O)N4CCC[C@H]4C(=O)N4CCN(C(=O)COc5ccc(C(=N)N)cc5)CC4)c3Cl)c2n1` [Example 22, 1-[[3-[(2-Dimethylquinolin-8-yl)oxymethyl]-2,4-dichlorophenyl]sulfonyl]-2(S)-[4-[2-[4-(aminoiminomethyl)phenoxyl-1-oxoethyl]piperazin-1-yl]carbonyl]pyrrolidine dihydrochloride], the inhibition at 1 µM was determined as 100%.

On to `Cc1ccc2cccc(OCc3c(Cl)ccc(S(=O)(=O)N4CCC[C@H]4C(=O)N4CCN(C(=O)Cc5ccc(C(=N)N)cc5)CC4)c3Cl)c2n1` [Example 20, 1-[[3-[(2-Methylquinolin-8-yl)oxymethyl]-2,4-dichlorophenyl]sulfonyl]-2(S)-[[4-[2-[4-(aminoiminomethyl)phenyl-1-oxoethyl]piperazin-1-yl]carbonyl]pyrrolidinedihydrochloride], for which the inhibition at 1 µM worked out at 100%.

As to `Cc1cc(C)c2cccc(OCc3c(Cl)ccc(S(=O)(=O)N4CCC[C@H]4C(=O)NCc4cccc(C(=N)N)c4)c3Cl)c2n1` [Example 2, 1-[[3-[(2,4-Dimethylquinolin-8-yl)oxymethyl]-2,4-dichlorophenyl]sulfonyl]-N-[3-(aminoiminomethyl)phenylmethyl]-2(S)-pyrrolidinecarboxamide dihydrochloride], the inhibition at 1 µM was found to be 100%. For `Cc1cc(C)c2cccc(OCc3c(Cl)ccc(S(=O)(=O)N4CCC[C@H]4C(=O)N4CCN(C(=O)COc5ccc(C(=N)N)cc5)CC4)c3Cl)c2n1` [Example 16, 1-[[3-[(2,4-Dimethylquinolin-8-yl)oxymethyl]-2,4-dichlorophenyl]sulfonyl]-2(S)-[[4-[2-[4-(aminoiminomethyl)phenoxyl]-1-oxoethyl]piperazin-1-yl]carbonyl]pyrrolidine dihydrochloride], the inhibition at 1 µM was determined as 100%. In the case of `Cc1cc(C)c2cccc(OCc3c(Cl)ccc(S(=O)(=O)N4CCC[C@H]4C(=O)N(C)Cc4ccc(C(=N)N)cc4)c3Cl)c2n1` [Example 4, 1-[[3-[(2,4-Dimethylquinolin-8-yl)oxymethyl]-2,4-dichlorophenyl]sulfonyl]-N-methyl-N-[4-(aminoiminomethyl)phenylmethyl]-2(S)-pyrrolidinecarboxamide dihydrochloride] it was 97.8%; in that of `Cc1ccc2cccc(OCc3c(Cl)ccc(S(=O)(=O)N4CCC[C@H]4C(=O)Nc4cccc(C(=N)N)c4)c3Cl)c2n1` [Example 10, 1-[[3-[(2-Methylquinolin-8-yl)oxymethyl]-2,4-dichlorophenyl]sulfonyl]-N-[3-(aminoiminomethyl)phenyl]-2(S)-pyrrolidinecarboxamide dihydrochloride], 100%; in that of `Cc1cc(C)c2cccc(OCc3c(Cl)ccc(S(=O)(=O)N4CCC[C@H]4C(=O)N4CCN(C(=O)Cc5ccc(C(=N)N)cc5)CC4)c3Cl)c2n1` [Example 14, 1-[[3-[(2,4-Dimethylquinolin-8-yl)oxymethyl]-2,4-dichlorophenyl]sulfonyl]-(S)-[[4-[2-[4-(aminoiminomethyl)phenyl]-1-oxoethyl]piperazin-1-yl]carbonyl]pyrrolidine dihydrochloride], 100%.

`Cc1cc(C)c2cccc(OCc3c(Cl)ccc(S(=O)(=O)N4CCC[C@H]4C(=O)NC4CCN(C(=O)COc5ccc(C(=N)N)cc5)CC4)c3Cl)c2n1` [Example 28]: the inhibition at 1 µM came out at 98%. The same measure for `Cc1ccc2cccc(OCc3c(Cl)ccc(S(=O)(=O)N4CCC[C@H]4C(=O)N4CCN(C(=O)c5ccc(C(=N)N)cc5)CC4)c3Cl)c2n1` [Example 18, 1-[[3-[(2-Methylquinolin-8-yl)oxymethyl]-2,4-dichlorophenyl]sulfonyl]-2(S)-[[4-[4-(aminoiminomethyl)benzoyl]piperazin-1-yl]carbonyl]pyrrolidine dihydrochloride]: 100%. The same measure for `Cc1cc(C)c2cccc(OCc3c(Cl)ccc(S(=O)(=O)N4CCC[C@H]4C(=O)NCC4CCN(C(=O)COc5ccc(C(=N)N)cc5)CC4)c3Cl)c2n1` [Example 30, 1-[[3-[(2,4-Dimethylquinolin-8-yl)oxymethyl]-2,4-dichlorophenyl]sulfonyl]-N-[[1-[2-[4-(aminoiminomethyl)phenoxy]-1-oxoethyl]piperidin-4-yl]methyl]-2(S)-pyrrolidinecarboxamide bis(methanesulfonate)]: 99.3%. Take `Cc1cc(C)c2cccc(OCc3c(Cl)ccc(S(=O)(=O)N4CCC[C@H]4C(=O)NC4CCN(C(=O)c5ccc(C(=N)N)cc5)CC4)c3Cl)c2n1` [Example 26, 1-[[3-[(2,4-Dimethylquinolin-8-yl)oxymethyl]-2,4-dichlorophenyl]sulfonyl]-N-[1-[4-(aminoiminomethyl)benzoyl]piperidin-4-yl]-2(S)-pyrrolidinecarboxamide bis(methanesulfonate)]: the inhibition at 1 µM turned out to be 100%. In the case of `Cc1ccc2cccc(OCc3c(Cl)ccc(S(=O)(=O)N4CCC[C@H]4C(=O)NCc4ccc(C(=N)N)cc4)c3Cl)c2n1` [Example 8, 1-[[3-[(2-Methylquinolin-8-yl)oxymethyl]-2,4-dichlorophenyl]sulfonyl]-N-[4-(aminoiminomethyl)phenylmethyl]-2(S)-pyrrolidinecarboxamide dihydrochloride] it was 96.6%; in that of `Cc1cc(C)c2cccc(OCc3c(Cl)ccc(S(=O)(=O)N4CCC[C@H]4C(=O)NCc4ccc(C(=N)N)cc4)c3Cl)c2n1` [Example 6, 1-[[3-[(2,4-Dimethylquinolin-8-yl)oxymethyl]-2,4-dichlorophenyl]sulfonyl]-N-[4-(aminoiminomethyl)phenylmethyl]-2(S)-pyrrolidinecarboxamide bis(methanesulfonate)], 100%; in that of `Cc1ccc2cccc(OCc3c(Cl)ccc(S(=O)(=O)N4CCC[C@H]4C(=O)NC4CCN(C(=O)c5ccc(C(=N)N)cc5)CC4)c3Cl)c2n1` [Example 24], 98.9%. As for `Cc1cc(C)c2cccc(OCc3c(Cl)ccc(S(=O)(=O)N4CCC[C@H]4C(=O)N4CCN(C(=O)c5ccc(C(=N)N)cc5)CC4)c3Cl)c2n1` [Example 12, 1-[[3-[(2,4-Dimethylquinolin-8-yl)oxymethyl]-2,4-dichlorophenyl]sulfonyl]-2(S)-[[4-[4-(aminoiminomethyl)benzoyl]piperazin-1-yl]carbonyl]pyrrolidine dihydrochloride], the inhibition at 1 µM was found to be 99.3%.

The term inhibition denotes the drop in the measured response relative to a control, in per cent.
